Source: ChEMBL document CHEMBL2074140, “Identification and characterization of a prostaglandin transporter” (Science, 1995)

target: Solute carrier organic anion transporter family member 2A1 (Rattus norvegicus, UniProt Q00910); assay: TP_TRANSPORTER: inhibition of PGF2alpha uptake in PGT-expressing HeLa cells; type: functional, cell-based

| Compound | Ki [µM] |
| --- | --- |
| Cc1c(C2(c3cc(Br)c(O)c(Br)c3C)OS(=O)(=O)c3ccccc32)cc(Br)c(O)c1Br [BROMCRESOL GREEN] | 3.6 |
| O=C1OC(c2ccc(O)c(S(=O)(=O)O)c2)(c2ccc(O)c(S(=O)(=O)O)c2)c2c(Br)c(Br)c(Br)c(Br)c21 [SULFOBROMOPHTHALEIN SODIUM] | 5.8 |
| CC1(C)C(/C=C/C=C/C=C/C=C2\N(CCCCS(=O)(=O)O)c3ccc4ccccc4c3C2(C)C)=[N+](CCCCS(=O)(=O)[O-])c2ccc3ccccc3c21 [INDOCYANINE GREEN] | 35 |
| NS(=O)(=O)c1cc(C(=O)O)c(NCc2ccco2)cc1Cl [FUROSEMIDE] | 47 |
